Measurements reported in PMC5882164, “A novel calcimimetic agent, evocalcet (MT-4580/KHK7580), suppresses the parathyroid cell function with little effect on the gastrointestinal tract or CYP isozymes in vivo and in vitro” (PLoS ONE, 2018).
Where two headings read alike, the source gives them in different places.

Tests used:
CYP2B6 = biological target: T1, CYP2B6 (Homo sapiens, UniProt P20813); assay: CYP inhibition assay in human liver microsomes; format: in vitro ADME; conditions: no pre-incubation, read-out: IC50 direct inhibition of CYP2B6
T1 construct: from tissue; host or cells: human liver microsomes
T1 sequence (P20813 1-491): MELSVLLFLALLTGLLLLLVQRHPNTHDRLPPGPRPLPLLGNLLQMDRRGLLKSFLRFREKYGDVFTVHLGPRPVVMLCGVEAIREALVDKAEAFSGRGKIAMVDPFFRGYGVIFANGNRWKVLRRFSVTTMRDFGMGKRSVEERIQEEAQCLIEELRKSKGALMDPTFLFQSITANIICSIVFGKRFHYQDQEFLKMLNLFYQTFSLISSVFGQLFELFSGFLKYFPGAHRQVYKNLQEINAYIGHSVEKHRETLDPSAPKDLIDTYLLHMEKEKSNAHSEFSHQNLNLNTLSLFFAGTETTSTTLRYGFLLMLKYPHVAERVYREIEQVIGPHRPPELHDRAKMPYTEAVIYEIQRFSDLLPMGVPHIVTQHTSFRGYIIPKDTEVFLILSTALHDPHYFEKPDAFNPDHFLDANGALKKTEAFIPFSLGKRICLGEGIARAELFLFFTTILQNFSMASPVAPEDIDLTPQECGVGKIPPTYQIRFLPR
Procedure: (§1) The direct inhibition of evocalcet (0.15~50 μM, 6-point concentrations) against the specific activities of 9 CYP isozymes (CYP1A2, CYP2A6, CYP2B6, CYP2C8, CYP2C9, CYP2C19, CYP2D6, CYP2E1, and CYP3A4/5) was examined in human liver microsomes without the pre-incubation of evocalcet, in the presence of the NADPH-generating system. Each CYP substrate was incubated with human liver microsomes in the absence or presence of evocalcet, and the inhibition of evocalcet for each CYP isozyme was measured.

CYP2E1 = biological target: T2, CYP2E1 (Homo sapiens, UniProt P05181); assay: CYP inhibition assay in human liver microsomes; format: in vitro ADME; conditions: no pre-incubation, read-out: IC50 direct inhibition of CYP2E1
T2 construct: from tissue; host or cells: human liver microsomes
T2 sequence (P05181 whole entry): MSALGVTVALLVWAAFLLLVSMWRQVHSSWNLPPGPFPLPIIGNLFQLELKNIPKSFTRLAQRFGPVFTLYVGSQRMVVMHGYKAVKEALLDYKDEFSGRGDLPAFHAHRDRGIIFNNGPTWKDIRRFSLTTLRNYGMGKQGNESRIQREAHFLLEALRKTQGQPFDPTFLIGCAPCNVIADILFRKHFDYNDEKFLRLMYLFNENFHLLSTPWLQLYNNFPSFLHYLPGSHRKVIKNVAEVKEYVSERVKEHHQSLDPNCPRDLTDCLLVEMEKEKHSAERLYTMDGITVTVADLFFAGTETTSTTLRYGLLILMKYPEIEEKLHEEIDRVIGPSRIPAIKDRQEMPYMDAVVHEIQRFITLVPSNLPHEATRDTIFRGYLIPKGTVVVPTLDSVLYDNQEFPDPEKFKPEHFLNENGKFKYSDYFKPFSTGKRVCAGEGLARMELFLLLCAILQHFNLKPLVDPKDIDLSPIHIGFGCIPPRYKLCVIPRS
Procedure: as §1

CYP2D6 = CYP2D6 (Homo sapiens, UniProt P10635); assay: CYP inhibition assay in human liver microsomes; format: in vitro ADME; conditions: no pre-incubation
Chain of CYP2D6 (P10635 whole entry): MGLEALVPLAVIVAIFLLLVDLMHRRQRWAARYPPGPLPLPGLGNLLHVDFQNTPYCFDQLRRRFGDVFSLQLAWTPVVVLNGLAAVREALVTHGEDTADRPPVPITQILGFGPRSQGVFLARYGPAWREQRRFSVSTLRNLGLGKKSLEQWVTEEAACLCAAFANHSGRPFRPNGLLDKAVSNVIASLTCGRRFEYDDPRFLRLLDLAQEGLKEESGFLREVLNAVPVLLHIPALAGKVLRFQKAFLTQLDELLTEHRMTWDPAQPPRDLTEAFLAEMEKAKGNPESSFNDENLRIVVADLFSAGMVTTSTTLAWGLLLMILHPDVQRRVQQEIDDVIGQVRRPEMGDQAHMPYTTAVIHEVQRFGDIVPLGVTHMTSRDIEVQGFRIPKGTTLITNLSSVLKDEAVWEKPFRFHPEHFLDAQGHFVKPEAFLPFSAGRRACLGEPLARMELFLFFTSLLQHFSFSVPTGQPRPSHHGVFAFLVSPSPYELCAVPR
Procedure: as §1

CYP3A4/5 = assay: CYP inhibition assay in human liver microsomes; format: in vitro ADME; conditions: no pre-incubation, read-out: IC50 direct inhibition of CYP3A4/5
Procedure: as §1

CYP2C9 = biological target: T3, CYP2C9 (Homo sapiens, UniProt P11712); assay: CYP inhibition assay in human liver microsomes; format: in vitro ADME; conditions: no pre-incubation, read-out: IC50 direct inhibition of CYP2C9
T3 construct: from tissue; host or cells: human liver microsomes
T3 sequence (P11712 whole entry): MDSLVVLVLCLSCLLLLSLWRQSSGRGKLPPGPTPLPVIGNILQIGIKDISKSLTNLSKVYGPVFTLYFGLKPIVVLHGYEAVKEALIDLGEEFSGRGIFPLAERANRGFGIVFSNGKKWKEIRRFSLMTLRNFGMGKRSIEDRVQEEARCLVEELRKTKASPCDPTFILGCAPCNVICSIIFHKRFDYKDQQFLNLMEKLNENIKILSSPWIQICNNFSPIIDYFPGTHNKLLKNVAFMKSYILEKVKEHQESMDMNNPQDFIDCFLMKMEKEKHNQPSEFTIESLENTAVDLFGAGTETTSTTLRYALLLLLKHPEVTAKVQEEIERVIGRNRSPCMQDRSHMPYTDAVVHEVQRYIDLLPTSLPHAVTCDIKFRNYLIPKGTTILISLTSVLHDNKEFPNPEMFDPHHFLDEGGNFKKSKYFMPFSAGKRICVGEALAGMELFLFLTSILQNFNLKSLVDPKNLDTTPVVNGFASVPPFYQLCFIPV
Procedure: (§2) Each CYP substrate was incubated with human liver microsomes in the absence or presence of evocalcet, and the inhibition of evocalcet for each CYP isozyme was measured.

CYP2C19 = biological target: T4, CYP2C19 (Homo sapiens, UniProt P33261); assay: CYP inhibition assay in human liver microsomes; format: in vitro ADME; conditions: no pre-incubation, read-out: IC50 direct inhibition of CYP2C19
T4 construct: from tissue; host or cells: human liver microsomes
T4 sequence (P33261 whole entry): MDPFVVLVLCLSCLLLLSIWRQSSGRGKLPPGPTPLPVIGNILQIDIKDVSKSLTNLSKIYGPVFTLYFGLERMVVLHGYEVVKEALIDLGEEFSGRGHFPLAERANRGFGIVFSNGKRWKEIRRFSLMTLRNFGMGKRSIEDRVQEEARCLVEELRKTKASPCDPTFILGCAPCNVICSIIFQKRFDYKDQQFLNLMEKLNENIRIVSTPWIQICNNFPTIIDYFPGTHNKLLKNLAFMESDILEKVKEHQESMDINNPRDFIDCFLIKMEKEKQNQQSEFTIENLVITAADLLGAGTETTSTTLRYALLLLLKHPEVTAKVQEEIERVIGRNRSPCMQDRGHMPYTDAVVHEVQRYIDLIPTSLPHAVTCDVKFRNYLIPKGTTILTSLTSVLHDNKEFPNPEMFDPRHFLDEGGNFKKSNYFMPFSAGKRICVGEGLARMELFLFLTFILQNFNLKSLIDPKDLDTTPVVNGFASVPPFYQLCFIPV
Procedure: as §2

CYP1A2 = biological target: T5, CYP1A2 (Homo sapiens, UniProt P05177); assay: CYP inhibition assay in human liver microsomes; format: in vitro ADME; conditions: no pre-incubation, read-out: IC50 direct inhibition of CYP1A2
T5 sequence (P05177 1-516): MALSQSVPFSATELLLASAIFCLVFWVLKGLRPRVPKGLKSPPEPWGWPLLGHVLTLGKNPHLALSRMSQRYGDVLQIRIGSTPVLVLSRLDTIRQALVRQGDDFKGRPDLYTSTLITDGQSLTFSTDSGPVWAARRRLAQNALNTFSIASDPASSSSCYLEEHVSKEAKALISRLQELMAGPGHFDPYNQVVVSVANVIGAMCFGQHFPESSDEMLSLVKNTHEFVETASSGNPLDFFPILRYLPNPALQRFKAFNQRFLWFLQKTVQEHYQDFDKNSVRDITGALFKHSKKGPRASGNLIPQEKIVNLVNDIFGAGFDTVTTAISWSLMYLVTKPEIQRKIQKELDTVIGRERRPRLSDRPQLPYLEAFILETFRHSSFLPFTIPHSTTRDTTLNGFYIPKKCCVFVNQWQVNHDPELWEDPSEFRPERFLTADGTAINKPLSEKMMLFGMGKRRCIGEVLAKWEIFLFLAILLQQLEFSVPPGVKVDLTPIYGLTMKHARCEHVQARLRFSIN
Procedure: as §2

[1] = Pharmacokinetics of evocalcet after oral administration to male rats; conditions: rat, in vivo; for AUC(0-inf): AUC0-∞
Procedure: The plasma concentrations of evocalcet were determined after single or repeated oral administration in both normal and 5/6 Nx rats. The pharmacokinetic (PK) parameters of the rat plasma concentrations were calculated individually using Phoenix WinNonlin 6.2, a PK analysis software program (Pharsight Corporation, Sunnyvale, CA).

For C[C@@H](N[C@H]1CCN(c2ccc(CC(=O)O)cc2)C1)c1cccc2ccccc12 [evocalcet], the IC50 (CYP2B6) was greater than 50 µM, the IC50 (CYP2E1) was greater than 50 µM and the “CYP2D6 activity in the presence of evocalcet” value (CYP2D6; 50 μM evocalcet, direct inhibition) was 50.7%. It also gave an IC50 (CYP2D6; read-out: IC50 direct inhibition of CYP2D6) greater than 50 µM, an IC50 (CYP3A4/5) greater than 50 µM and an IC50 (CYP2C9) greater than 50 µM. It also gave an IC50 (CYP2C19) greater than 50 µM, an IC50 (CYP1A2) greater than 50 µM and a bioavailability ([1]; Sprague-Dawley, Bioavailability) greater than 80%. For the same molecule, the AUC(0-inf) ([1]; Sprague-Dawley, po, 0.1 mg/kg) was 0.819 µg·h/mL, the Cmax ([1]; Sprague-Dawley, po, 0.1 mg/kg) was 0.222 µg/mL and the bioavailability ([1]; Sprague-Dawley, po, 0.1 mg/kg, F (bioavailability)) was 81.6%. The half-life ([1]; Sprague-Dawley, po, 0.1 mg/kg, t1/2) was 6.66 h, the Tmax ([1]; Sprague-Dawley, po, 0.1 mg/kg, tmax) was 0.25 h and the AUC(0-inf) ([1]; Sprague-Dawley, po, 0.3 mg/kg) was 2.58 µg·h/mL. It also gave a Cmax ([1]; Sprague-Dawley, po, 0.3 mg/kg) of 0.6 µg/mL, a bioavailability ([1]; Sprague-Dawley, po, 0.3 mg/kg, F (bioavailability)) of 85.6% and a half-life ([1]; Sprague-Dawley, po, 0.3 mg/kg, t1/2) of 5.77 h. For the same molecule, the Tmax ([1]; Sprague-Dawley, po, 0.3 mg/kg, tmax) was 0.38 h, the t1/2 ([1]; Sprague-Dawley, po, 1 mg/kg) was 6.13 h and the AUC(0-inf) ([1]; Sprague-Dawley, po, 1 mg/kg) was 8.45 µg·h/mL. For the same molecule, the Cmax ([1]; Sprague-Dawley, po, 1 mg/kg) was 2.19 µg/mL, the bioavailability ([1]; Sprague-Dawley, po, 1 mg/kg, F (bioavailability)) was 84.2% and the Tmax ([1]; Sprague-Dawley, po, 1 mg/kg, tmax) was 0.81 h. It also gave a half-life ([1]; normal rats, single oral dose 1 mg/kg, mean, read-out: t1/2 (converted)) of 6.13 h, an AUC(0-inf) ([1]; po, 0.1 mg/kg) of 0.981 µg·h/mL and a Cmax ([1]; po, 0.1 mg/kg) of 0.221 µg/mL. For the same molecule, the half-life ([1]; po, 0.1 mg/kg, t1/2) was 5.71 h, the Tmax ([1]; po, 0.1 mg/kg, tmax) was 0.25 h and the Tmax ([1]; po, 0.3 mg/kg) was 0.50 h. It also gave an AUC(0-inf) ([1]; po, 0.3 mg/kg) of 2.26 µg·h/mL, a Cmax ([1]; po, 0.3 mg/kg) of 0.571 µg/mL and a half-life ([1]; po, 0.3 mg/kg, t1/2) of 5.68 h. It also gave a Tmax ([1]; po, 0.3 mg/kg, tmax) of 0.25 h, a Tmax ([1]; po, 1 mg/kg) of 1.00 h and an AUC(0-inf) ([1]; po, 1 mg/kg) of 7.89 µg·h/mL. It also gave a Cmax ([1]; po, 1 mg/kg) of 1.81 µg/mL and a half-life ([1]; po, 1 mg/kg, t1/2) of 6.99 h.
